These results are taken from patent publication US5688807A, “Method for treating 5HT2B receptor related conditions” (Eli Lilly and Company, priority 1995, dated 1997).

Where a name gives a salt, the structure may show the parent alone. Read-outs that look alike come from different tables or passages of the source.

One test deals with rat 5-HT2B receptor (Rattus norvegicus, UniProt P30994). Nature of the test: biochemical. Format: binding.
For another test, the target named is Human 5-HT2A (Homo sapiens, UniProt P28223). The test can be described thus: [125I]DOI radioligand binding, human 5-HT2A.
The target in another test is T1, Human 5-HT2B (Homo sapiens, UniProt P41595).
T1 construct: expressed in transfected cells
Nature of the test: [3H]Serotonin radioligand binding, human 5-HT2B.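 Also: competition of tritiated serotonin binding to cell membranes, bound radioactivity on filters counted by liquid scintillation, IC50 from logistic fits converted to Ki with the Cheng-Prusoff equation.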

Test [1] concerns the target 5-HT2B receptor (rat stomach fundus) (Rattus norvegicus, UniProt P30994).
Where [2] appears, read: [3H]Serotonin, 5-HT2B cells, AVG, read-out: Ki Human 5-HT2B.
[3] abbreviates: [3H]Serotonin, 5-HT2B cells, AVG, read-out: Ki Rat 5-HT2B.
The mark [4] stands for this setting: rat stomach fundus, vs serotonin, ± standard error, read-out: 5-HT2B (Fundus) -log KB (converted).
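For 5-HT2B (Fundus) -log KB in this document: isometric contraction of isolated male Wistar rat stomach fundus strips, serotonin concentration-response curves after antagonist incubation, KB from dose ratio of agonist potency versus control curve.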
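For KB in this document: isometric contraction of isolated male Wistar rat stomach fundus strips, serotonin concentration-response curves after antagonist incubation, KB from dose ratio of agonist potency versus control curve.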
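For Ki Rat 5-HT2B in this document: displacement of [3H]5-HT from membranes of suspension cells carrying cloned rat 5-HT2B receptor, incubated 15 min at 37 °C or 2 h at 0 °C, filter-bound radioactivity counted by scintillation.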

T1 sequence (P41595 whole entry): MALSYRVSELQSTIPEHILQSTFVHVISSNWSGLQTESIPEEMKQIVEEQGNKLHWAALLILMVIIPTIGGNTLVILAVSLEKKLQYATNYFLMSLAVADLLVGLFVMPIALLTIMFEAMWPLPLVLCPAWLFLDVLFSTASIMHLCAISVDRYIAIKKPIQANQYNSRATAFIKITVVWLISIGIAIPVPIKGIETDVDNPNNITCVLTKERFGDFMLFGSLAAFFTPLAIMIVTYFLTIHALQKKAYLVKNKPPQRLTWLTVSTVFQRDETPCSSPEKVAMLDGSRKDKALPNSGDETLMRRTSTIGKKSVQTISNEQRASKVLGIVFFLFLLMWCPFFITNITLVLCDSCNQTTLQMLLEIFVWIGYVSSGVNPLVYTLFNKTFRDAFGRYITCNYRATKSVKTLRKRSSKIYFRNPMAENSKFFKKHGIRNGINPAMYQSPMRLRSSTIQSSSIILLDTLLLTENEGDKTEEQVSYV
Sequence of Human 5-HT2A (P28223 whole entry): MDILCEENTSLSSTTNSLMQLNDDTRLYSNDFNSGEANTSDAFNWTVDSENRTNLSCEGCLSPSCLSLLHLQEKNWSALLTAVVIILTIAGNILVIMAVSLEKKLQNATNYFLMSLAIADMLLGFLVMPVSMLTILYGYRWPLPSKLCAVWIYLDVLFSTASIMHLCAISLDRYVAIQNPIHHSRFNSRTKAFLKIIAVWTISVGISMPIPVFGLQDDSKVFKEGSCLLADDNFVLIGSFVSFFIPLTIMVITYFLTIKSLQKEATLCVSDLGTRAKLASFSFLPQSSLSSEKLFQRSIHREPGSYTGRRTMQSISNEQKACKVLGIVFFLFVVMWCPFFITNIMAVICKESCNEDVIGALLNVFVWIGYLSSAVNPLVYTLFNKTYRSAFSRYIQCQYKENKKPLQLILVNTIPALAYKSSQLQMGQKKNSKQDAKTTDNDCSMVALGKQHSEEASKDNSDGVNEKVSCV
Sequence of rat 5-HT2B receptor (P30994 whole entry): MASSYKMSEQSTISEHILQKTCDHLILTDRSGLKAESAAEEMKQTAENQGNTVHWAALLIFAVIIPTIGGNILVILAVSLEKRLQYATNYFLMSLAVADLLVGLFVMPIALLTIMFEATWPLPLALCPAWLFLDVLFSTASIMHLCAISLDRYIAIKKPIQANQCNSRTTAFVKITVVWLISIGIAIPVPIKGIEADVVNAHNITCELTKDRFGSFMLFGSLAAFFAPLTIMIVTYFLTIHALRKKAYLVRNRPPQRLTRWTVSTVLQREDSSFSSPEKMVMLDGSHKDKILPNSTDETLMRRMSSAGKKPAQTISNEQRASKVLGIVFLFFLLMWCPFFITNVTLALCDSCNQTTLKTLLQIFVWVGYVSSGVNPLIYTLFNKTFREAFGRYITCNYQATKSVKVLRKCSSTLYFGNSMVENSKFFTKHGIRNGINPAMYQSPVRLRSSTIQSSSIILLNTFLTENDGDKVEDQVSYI
Sequence of 5-HT2B receptor (rat stomach fundus) (P30994 whole entry): as above

Regarding `CC(C)n1cc2c3c(cccc31)C1CC(C(=O)NCCN3CCN(c4ccccc4)CC3)CN(C)C1C2` (stereo not drawn), the Ki at rat 5-HT2B receptor (Ki Rat 5-HT2B, [3H]Serotonin, 5-HT2B cells, AVG) came out at 11.9 nM; on Human 5-HT2A (Ki Human 5-HT2A, [125I]DOI, AVG) it was 32.7 nM.

In the case of `CCCN(CCC)C1CCc2cccc(-c3ccno3)c2C1` (stereo not drawn), the Ki is 509 nM at Human 5-HT2B (setting [2]) and 354 nM on Human 5-HT2A (read-out: Ki Human 5-HT2A, [125I]DOI, AVG).

On to `CCCN(CCC)[C@@H]1CCc2cccc(-c3ccon3)c2C1`, for which the values for the Ki on Human 5-HT2B (setting [2]) and on Human 5-HT2A were 784 nM and 127 nM, respectively.

For the compound `CCCN(CCC)[C@H]1CCc2cccc(-c3ccon3)c2C1`, the Ki was 257 nM on Human 5-HT2B (setting [2]) and 5690 nM on Human 5-HT2A.

For the compound `CCCNC1CCc2cccc(-c3ccno3)c2C1` (stereo not drawn), the Ki at Human 5-HT2B (setting [2]) was found to be 1020 nM; at Human 5-HT2A, 6030 nM.

With `CCCNC1CCc2cccc(C(C)=O)c2C1` (stereo not drawn), the Ki at Human 5-HT2B (setting [2]) amounted to 1790 nM.

In the case of `CC(N)Cc1c[nH]c2ccc(O)cc12` (stereo not drawn), the Ki on Human 5-HT2B amounted to 11.9 nM.

On to `NCCc1c[nH]c2ccc(C(N)=O)cc12`, for which the Ki at rat 5-HT2B receptor (setting [3]) was 147 nM; on Human 5-HT2B (setting [2]) it was 128 nM; on Human 5-HT2A it was 120 nM.

With `c1ccc2c(N3CCNCC3)cccc2c1`, the Ki on rat 5-HT2B receptor (setting [3]) was 4.5 nM; at Human 5-HT2B, 3.79 nM.

With `Cc1ccc2[nH]c3c(c2c1)CCNC3C(C)c1cccc2ccccc12` (stereo not drawn), the Ki is 3.94 nM on rat 5-HT2B receptor (setting [3]), 1.29 nM on Human 5-HT2B (setting [2]) and 5.62 nM at Human 5-HT2A.

In the case of `Cc1ccc2[nH]c3c(c2c1)CCNC3Cc1ccc(N(C)C)c2ccccc12` (stereo not drawn), the Ki amounted to 5.02 nM on rat 5-HT2B receptor (setting [3]), 1.64 nM on Human 5-HT2B (setting [2]) and 0.83 nM on Human 5-HT2A.

Turning to `Cc1ccc2[nH]c3c(c2c1)CCNC3Cc1cccc2ccccc12` (stereo not drawn), the Ki on rat 5-HT2B receptor (setting [3]) turned out to be 3.31 nM; on Human 5-HT2B (setting [2]), 0.74 nM; on Human 5-HT2A, 4.63 nM.

With `COc1ccc(CC2NCCc3c2[nH]c2c(Cl)c(C)ccc32)cc1OC` (stereo not drawn), the Ki at rat 5-HT2B receptor (setting [3]) is 3.19 nM; on Human 5-HT2B (setting [2]), 0.84 nM; on Human 5-HT2A it was 0.93 nM.

Take `CCc1ccc2[nH]c3c(c2c1)CCNC3Cc1cccc2ccccc12` (stereo not drawn): the Ki on Human 5-HT2B (setting [2]) is 2.08 nM; on Human 5-HT2A, 6.71 nM.

As for `COc1ccc(CC2NCCc3c2[nH]c2ccc(C)cc32)c(Br)c1OC` (stereo not drawn), the Ki on Human 5-HT2B was determined as 0.37 nM; at Human 5-HT2A it was 12.2 nM.

For `COc1ccc(CC2NCCc3c2[nH]c2ccc(C)cc32)cc1O` (stereo not drawn), the results for the Ki on Human 5-HT2B (setting [2]) and at Human 5-HT2A were 1.47 nM and 54.9 nM, respectively.

Turning to `COc1ccc(C(C)C2NCCc3c2[nH]c2ccc(C(C)C)cc32)cc1OC` (stereo not drawn), the Ki at Human 5-HT2B (setting [2]) was found to be 3.46 nM; on Human 5-HT2A, 201 nM.

`CN1CC(C(=O)NC2CCCC2O)CC2c3cccc4[nH]cc(c34)CC21` (stereo not drawn) showed a Ki on Human 5-HT2B of 7.87 nM.

With `CC(C)n1cc2c3c(cccc31)C1CC(C(=O)NC3CCCC3O)CN(C)C1C2` (stereo not drawn), the Ki at Human 5-HT2B (read-out: Ki Human 5-HT2B, [3H]Serotonin, 5-HT2B cells, AVG) worked out at 2.24 nM; on Human 5-HT2A ([125I]DOI, AVG, read-out: Ki Human 5-HT2A) it was 21.9 nM.

On to `Cc1ccc2[nH]c3c(c2c1)CCNC3C(C)c1cccc2ccccc12` (racemic) [Example 49, (±) 6-methyl-1-(1-naphthalenyl-1-ethyl)-1,2,3,4-tetrahydro-9H-pyrido [3,4-b]indole (Z) 2-butenedioate], for which, at rat 5-HT2B receptor (Radioligand assay, Table III, read-out: pKi (converted)), the Ki is 3.98 nM. In addition, the Kb in test [1] (setting [4]) was roughly 0.0389 nM.

With `CCCN(CCC)C1CCc2cccc(C(=O)C(C)(C)C)c2C1` (single isomer, unassigned), the Ki amounted to 4750 nM at Human 5-HT2B (setting [2]) and 2230 nM on Human 5-HT2A.

Consider `COc1ccc(CC2NCCc3c2[nH]c2c(F)cc(F)cc32)cc1OC` (stereo not drawn) [Example 6, 6,8-difluoro-1-[(3,4-dimethoxyphenyl)-methyl]-1,2,3,4-tetrahydro-9H-pyrido[3,4-b]indole], for which the Kb in test [1] (setting [4]) is 0.251 nM.

In turn, `COc1ccc(CC2NCCc3c2[nH]c2c(Br)c(C)ccc32)cc1OC` (stereo not drawn) [Example 7, 7-methyl-8-bromo-1-[(3,4-dimethoxyphenyl)-methyl]-1,2,3,4-tetrahydro-9H-pyrido[3,4-b]indole hydrochloride] showed a Kb in test [1] of 0.955 nM.

For the compound `COc1ccc(CC2NCCc3c2[nH]c2ccc(C(C)(C)C)cc32)cc1OC` (stereo not drawn) [Example 8, 6-(1,1-dimethylethyl)-1-[(3,4-dimethoxyphenyl)methyl]1,2,3,4-tetrahydro-1-9H-pyrido-[3,4b]indole hydrochloride], the Kb in test [1] (setting [4]) was 3.55 nM.

On to `COc1ccc(CC2NCCc3c2[nH]c2ccc(C)c(F)c32)cc1OC` (stereo not drawn) [Example 9, 5-fluoro-6-methyl-1-[(3,4-dimethoxyphenyl)-methyl]-1,2,3,4-tetrahydro-9H-pyrido[3,4-b]indole], for which the Kb in test [1] (setting [4]) was 0.501 nM.

Turning to `COc1ccc(CC2NCCc3c2[nH]c2c3ccc3ccccc32)cc1OC` (stereo not drawn) [Example 10, 7,8,9,10-tetrahydro-10-[(3,4-dimethoxyphenyl)methyl]-11H-benzo[g]pyrido[3,4-b]indole], the Kb in test [1] (setting [4]) was 0.603 nM.

In the case of `COc1ccc(CC2NCCc3c2[nH]c2ccc(C4CCCCC4)cc32)cc1OC` (stereo not drawn) [Example 11, 6-cyclohexyl-1-[(3,4-dimethoxyphenyl)-methyl]-1,2,3,4-tetrahydro-9H-pyrido[3,4-b]indole hydrochloride], the Kb in test [1] (setting [4]) is greater than 30.2 nM.

With `COc1ccc(CC2NCCc3c2[nH]c2c(C)ccc(C)c32)cc1OC` (stereo not drawn) [Example 12, 5,8-dimethyl-1,2,3,4-tetrahydro-1-[(3,4-dimethoxyphenyl)methyl]-9H-pyrido[3,4b]indole hydrochloride], the Kb in test [1] (setting [4]) is 0.513 nM.

Consider `COc1ccc(CC2NCCc3c2[nH]c2ccc(C(C)C)cc32)cc1OC` (stereo not drawn) [Example 13, 6-(1-methylethyl)-1,2,3,4-tetrahydro-1-[(3,4-dimethoxyphenyl)methyl]-9H-pyrido[3,4b]indole], for which the Kb in test [1] (setting [4]) was 3.16 nM.

For the compound `COc1ccc(CC2NCCc3c2[nH]c2c(C)cc(C)cc32)cc1OC` (stereo not drawn) [Example 14, 6,8-dimethyl-1,2,3,4-tetrahydro-1-[(3,4-dimethoxyphenyl)methyl]-9H-pyrido[3,4b]indole hydrochloride], in test [1] (setting [4]), the Kb is 0.245 nM.

For the compound `COc1ccc(CC2NCCc3c2[nH]c2cc(C)cc(C)c32)cc1OC` (stereo not drawn) [Example 15, 5,7-dimethyl-1,2,3,4-tetrahydro-1-[(3,4-dimethoxyphenyl)methyl]-9H-pyrido[3,4b]indole hydrochloride], the Kb in test [1] (setting [4]) is 0.457 nM.

For `COc1ccc(CC2NCCc3c2[nH]c2ccc(Br)cc32)cc1OC` (stereo not drawn) [Example 18, 6-bromo-1,2,3,4-tetrahydro-1-[(3,4-dimethoxyphenyl)methyl]-9H-pyrido[3,4b]indole], the Kb in test [1] (setting [4]) was 1.58 nM.

In turn, `COc1ccc(CC2NCCc3c2[nH]c2c(C)c(C)ccc32)cc1OC` (stereo not drawn) [Example 19, 7,8-dimethyl-1,2,3,4-tetrahydro-1-[(3,4-dimethoxyphenyl)methyl]-9H-pyrido[3,4b]indole hydrochloride] gave a Kb in test [1] of 0.0759 nM.

Turning to `COc1cc(CC2NCCc3c2[nH]c2ccc(C)cc32)cc([N+](=O)[O-])c1OC` (stereo not drawn) [Example 28, 6-methyl-1-[(3,4-dimethoxy-5-nitrophenyl)-methyl]-1,2,3,4-tetrahydro-9H-pyrido[3,4-b]indole hydrochloride], the Kb in test [1] (setting [4]) is 2.82 nM.

For `COc1cc(CC2NCCc3c2[nH]c2ccc(C)cc32)cc(I)c1OC` (stereo not drawn) [Example 29, 6-methyl-1-[(3-iodo-4,5-dimethoxy-phenyl)-methyl]-1,2,3,4-tetrahydro-9H-pyrido[3,4-b]indole], the Kb in test [1] (setting [4]) is 7.59 nM.

For the compound `COc1cc(CC2NCCc3c2[nH]c2ccc(C)cc32)cc(N)c1OC` (stereo not drawn) [Example 30, 6-methyl-1-[(3,4-dimethoxy-5-amino-phenyl)-methyl]-1,2,3,4-tetrahydro-9H-pyrido[3,4-b]indole dihydrochloride], the Kb in test [1] (setting [4]) was 1.29 nM.

On to `COc1ccc(CC2NCCc3c2[nH]c2ccc(C)cc32)cc1F` (stereo not drawn) [Example 34, 6-methyl-1-[(3-fluoro-4-methoxyphenyl)-methyl]-1,2,3,4-tetrahydro-9H-pyrido[3,4-b]indole hydrochloride], for which, in test [1] (setting [4]), the Kb is 0.38 nM.

For `Cc1ccc2[nH]c3c(c2c1)CCNC3Cc1ccc(C)c(C)c1` (stereo not drawn) [Example 35, 6-methyl-1-[(3,4-dimethylphenyl)methyl]-1,2,3,4-tetrahydro-9H-pyrido[3,4-b]indole hydrochloride], in test [1] (read-out: 5-HT2B (Fundus) -log KB (converted)), the Kb is roughly 0.871 nM.

On to `COc1c(O)ccc(CC2NCCc3c2[nH]c2ccc(C)cc32)c1Cl` (stereo not drawn) [Example 37, 6-methyl-1-[(2-chloro-3-methoxy-4-hydroxyphenyl)methyl]-1,2,3,4-tetrahydro-9H-pyrido[3,4-b]-indole hydrochloride], for which the Kb in test [1] (setting [4]) is 0.646 nM.

Regarding `Cc1ccc2[nH]c3c(c2c1)CCNC3CC1CCCCC1` (stereo not drawn) [Example 39, 6-methyl-1-(cyclohexylmethyl)-1,2,3,4-tetrahydro-9H-pyrido[3,4-b]indole hydrochloride], the Kb in test [1] (setting [4]) was 4.79 nM.

Consider `COc1ccc(CC2c3[nH]c4ccc(C)cc4c3CCN2C)c(Cl)c1OC` (stereo not drawn) [Example 44, 2,6-dimethyl-1-[(2-chloro-3,4-dimethoxyphenyl)methyl]-1,2,3,4-tetrahydro-9H-pyrido[3,4-b]indole hydrochloride], for which the Kb in test [1] (setting [4]) was 3.98 nM.

On to `COc1ccc(CC2c3[nH]c4ccc(C(C)C)cc4c3CCN2C)cc1OC` (stereo not drawn) [Example 45, 2-methyl-6-(1-methylethyl)-1,2,3,4-tetrahydro-1-[(3,4-dimethoxyphenyl)methyl]-9H-pyrido-[3,4b]indole maleate], for which the “5-HT2B (Fundus) -log KB” value in test [1] (rat stomach fundus, vs serotonin, ± standard error) was 8.14 ± 0.32.

For the compound `Cc1ccc2[nH]c3c(c2c1)CCN[C@H]3Cc1cccc2ccccc12` [Example 64, (-)-(S)-6-methyl-1,2,3,4-tetrahydro-1-(1-naphthalenylmethyl)-9H-pyrido [3,4-b] indole hydrochloride], the Kb in test [1] (setting [4]) is 0.186 nM.

`COc1ccc(CC2NCCc3c2[nH]c2ccc(C)cc32)cc1OC` (stereo not drawn) [drawing 144]: the Ki on Human 5-HT2A was determined as 28.1 nM.

Turning to `COc1ccc(CC2NCCc3c2[nH]c2c(C)cccc32)cc1OC` (stereo not drawn) [drawing 182], the Ki at Human 5-HT2B (setting [2]) turned out to be 1.69 nM; on Human 5-HT2A, 49.7 nM.
